Assay results from US20240342138A1, “MICROTUBULE TARGETING AGENTS” (BPGbio, Inc., priority 2023, published 2024).
Where two headings read alike, the source gives them in different places.

Key:
C6 rat glioma cells = experiment: Orthotopic syngeneic C6 glioma model; type: in vivo, Sprague Dawley rats
Description: (§1) FIG. 14A-14E show the efficacy of Compound 1 in glioblastoma cell lines in vitro and in a glioblastoma rat model (C6). A) In vitro potency of Compound 1 in four different glioblastoma cell lines as evaluated by Realtime-Glo™ assay (C6, and U87 cells) or ATPlite 1Step™ Perkin Elmer (performed by NTRC Oncolines; T98G and A-172 cells). B) Study design overview: C6 rat glioma cells (3×10^5) were implanted into the right entorhinal cortex/subiculum region of male Sprague Dawley rats and tumor burden was assessed 14 days post inoculation using MRI and animals randomized into […] (4) groups (vehicle control, 5 mg/kg, 10 mg/kg, and 20 mg/kg Compound 1) with 4 animals per group. […] C) Body weights were measured every two days. […]
(§2) Glioblastoma (GBM) is the most common and highly malignant form of primary brain tumor with a poor prognosis despite advances in treatments. […] Accordingly, the in vitro potency of Compound 1 was examined in four different glioblastoma cell lines as evaluated by Realtime-Glo™ assay (C6, and U87 cells) or ATPlite 1Step™ Perkin Elmer (performed by NTRC Oncolines; T98G and A-172 cells). […] Therefore, the in vivo tumor activity of Compound 1 was next assessed in Sprague Dawley rats implanted with C6 rat glioma cells into the right entorhinal cortex/subiculum region (AP: −7 mm; ML: 4.5 mm, DV: 5 mm). […]

A549 cells = experiment: In vitro potency, ATPlite 1Step (NTRC Oncolines); type: cell-based; conditions: Homo sapiens; for Emax: A549, A549, in vitro, biphasic, read-out: Maximum effect (%)
Experimental: FIG. 13A-13B show efficacy of Compound 1 in a lung adenocarcinoma xenograft model (A549). A) In vitro potency of Compound 1 in A549 cells as evaluated by ATPlite 1Step™ Perkin Elmer (performed by NTRC Oncolines). B) A549 cells (5×10^6) were implanted subcutaneously in athymic female nude mice and tumors were allowed to grow to a volume of ˜112 mm^3 followed by randomization of animals into three (3) groups (vehicle control, 75 mg/kg, 150 mg/kg Compound 1) with 12 animals per group. A Compound 1 solid dispersion was prepared prior to each dosing and administered by oral gavage two times a day (BID). Mean tumor volume of each group over time and the growth of tumor in each individual animal was graphed. For each individual animal of […] group TGI (%) was calculated based on the tumor growth inhibition of individual tumor at each given day of the study compared to the average of the group for that given day of the study. P-values were calculated using two-tailed distribution and two-sample equal variance (homoscedastic) for each group treated with Compound 1 for each given day of the study in reference to vehicle control. NS p>0.05; *p≤0.05; **p≤0.01; ***p p≤0.001; **** p≤0.0001.
A549 is a human lung adenocarcinoma cell line isolated from the lung tissue of their origin. […] A549 cells were implanted subcutaneously in nude mice and tumors were allowed to grow to an average volume of 112 mm^3 followed by randomization into three (3) groups consisting of vehicle control, 75 mg/kg and 150 mg/kg Compound 1 (12 animals per group). A Compound 1 solid dispersion was administered by oral gavage two times a day (BID). All animals remained in the study until Day 28 except one animal from Group 3 (Animal #29), which exited the study on Day 11 due to more than 20% body weight loss. This animal was excluded from all analysis. Data from Day 14-18 were excluded from the analysis due to inconsistencies in data collection methods.

U87 cells = experiment: In vitro potency in glioblastoma cells, Realtime-Glo assay; type: cell-based; conditions: Homo sapiens, U-87 MG, FIG. 14A, read-out: In vitro potency (anti-cancer activity)
Description: as §1, §2

C6 cells = experiment: as above; type: cell-based; conditions: Rattus norvegicus, FIG. 14A, read-out: In vitro potency (anti-cancer activity)
Description: as §1, §2

HCT116 cells = experiment: Kinetochore assembly, immunocytochemistry / confocal microscopy; type: cell-based; conditions: 300 nM, 24h
Experimental: The HCT116 cells were cultured using DMEM media supplemented with 10% FBS and 1% Pen/Strep. Cells were maintained to a maximum of 80% confluency before being split and plated into coverslips in 12-well plates.
1. HCT116 cells were plated on Poly-D-Lysine German Glass Coverslips (#1.5, 18 mm)
2. After 24h cells were treated with 300 nM of Compound 1 and Nocodozole.
3. After 24h cells were washed briefly with PBS and fixed with warm 4% paraformaldehyde at room temperature for 10 min.
4. Cells were permeabilized and blocked in 10% goat serum, 0.5% Triton-X in PBS for 1 hr.
5. Cells were incubated with Primary antibodies overnight.
6. Washed 3× with PBS for 10 min
7. Incubated with secondary antibodies at room temperature for 1 hr.
8. Washed 3× with PBS for 10 min
9. Coverslips were mounted with ProLong Gold Anti-Fade Mount with DAPI and imaged with Olympus FV1200 MPE Microscope.
10. Images were collected with identical confocal settings for all of the samples and Z-stacked images were projected with maximal projection mode using Fluor View Software.
1. Selected cells of interest using the drawing/selection tools (i.e. rectangle, circle, polygon or freeform).
2. From the Analyze menu selected “Measure.”
3. Selected region with no fluorescence to be my background.
4. Repeated these steps for other cells in the field of view
5. Used the CTCF formula to calculate Mad1 expression:
CTCF=Integrated Density−(Area of selected cell×Mean fluorescence of background readings)
Micrographs were imaged using Olympus FV1200 MPE confocal microscope at 63× oil. White arrows indicate dividing cells. Representative images of N=3 biological replicates. Significance in difference of treated HCT116 cells to untreated cells was tested by Student t test (** p<0.01).

SMILES: COc1ccccc1-c1nc(CNC(=O)c2ccccc2OC(F)F)n[nH]1 [Compound 1, 2-(difluoromethoxy)-N-[[5-(2-methoxyphenyl)-1H-1,2,4-triazol-3-yl]methyl]benzamide]
- Animals still alive at day 60 post-treatment initiation (C6 rat glioma cells; 2 in each treatment group (5, 10, 20 mg/kg)): six
- MRI imaging of surviving animals (C6 rat glioma cells; FIG. 14E): reduction in tumor size and tumor fragmentation
- Emax (A549 cells; at highest concentration tested): 100%
- Emax (A549 cells; first phase): 52%
- IC50 (A549 cells; A549, biphasic response, first phase): 53 nM
- IC50 (U87 cells): 89 nM
- IC50 (C6 cells): 42 nM
- Mitotic spindle formation (HCT116 cells; FIG. 4A): lack of proper mitotic spindle formation
- Mad1 signal intensity (HCT116 cells; FIG. 4B): increase in Mad1 signal intensity
